{
  "source": "patent US20260223897A1",
  "about": "“SIAMENOSIDE I SWEETENED BEVERAGES WITH MOGROSIDE BLENDS” (The Coca-Cola Company, priority 2023, published 2026)",
  "data": [
    {"assay": "Taste of blends with siamenoside I, findings summarised in the description", "conditions": "blended with siamenoside I in certain ratios", "values": [
      {"molecule": "C[C@H](CC[C@@H](O[C@@H]1O[C@H](CO[C@@H]2O[C@H](CO)[C@@H](O)[C@H](O)[C@H]2O)[C@@H](O)[C@H](O)[C@H]1O[C@@H]1O[C@H](CO)[C@@H](O)[C@H](O)[C@H]1O)C(C)(C)O)[C@H]1CC[C@@]2(C)C3CC=C4[C@@H](CC[C@H](O[C@@H]5O[C@H](CO)[C@@H](O[C@@H]6O[C@H](CO)[C@@H](O)[C@H](O)[C@H]6O)[C@H](O)[C@H]5O)C4(C)C)[C@]3(C)C(=O)C[C@]12C", "note": "(stereo partly drawn) [11-Oxoisomogroside V, 11- Oxoisomogroside V]", "taste attributes when blended with siamenoside I vs siamenoside I only sweetened beverages": "less objectionable taste attributes"},
      {"molecule": "C[C@H](CC[C@@H](O[C@@H]1O[C@H](CO[C@@H]2O[C@H](CO)[C@@H](O)[C@H](O)[C@H]2O)[C@@H](O)[C@H](O)[C@H]1O)C(C)(C)O)[C@H]1CC[C@@]2(C)C3CC=C4[C@@H](CC[C@H](O[C@@H]5O[C@H](CO)[C@@H](O)[C@H](O)[C@H]5O)C4(C)C)[C@]3(C)C(=O)C[C@]12C", "note": "(stereo partly drawn) [11-Oxomogroside III]", "taste attributes when blended with siamenoside I vs siamenoside I only sweetened beverages": "less objectionable taste attributes"},
      {"molecule": "C[C@H](CC[C@@H](O[C@@H]1O[C@H](CO[C@@H]2O[C@H](CO)[C@@H](O)[C@H](O)[C@H]2O)[C@@H](O)[C@H](O)[C@H]1O[C@@H]1O[C@H](CO)[C@@H](O)[C@H](O)[C@H]1O)C(C)(C)O)[C@H]1CC[C@@]2(C)C3CC=C4[C@@H](CC[C@H](O[C@@H]5O[C@H](CO[C@@H]6O[C@H](CO)[C@@H](O)[C@H](O)[C@H]6O)[C@@H](O)[C@H](O)[C@H]5O)C4(C)C)[C@]3(C)[C@H](O)C[C@]12C", "note": "(stereo partly drawn) [11-Oxomogroside V]", "taste attributes when blended with siamenoside I vs siamenoside I only sweetened beverages": "less objectionable taste attributes"},
      {"molecule": "C[C@H](CC[C@@H](O[C@@H]1O[C@H](CO[C@@H]2O[C@H](CO)[C@@H](O)[C@H](O)[C@H]2O)[C@@H](O)[C@H](O)[C@H]1O[C@@H]1O[C@H](CO)[C@@H](O)[C@H](O)[C@H]1O)C(C)(C)O)[C@H]1CC[C@@]2(C)C3CC=C4[C@@H](CC[C@H](O[C@@H]5O[C@H](CO)[C@@H](O[C@@H]6O[C@H](CO)[C@@H](O)[C@H](O)[C@H]6O)[C@H](O)[C@H]5O)C4(C)C)[C@]3(C)[C@H](O)C[C@]12C", "note": "(stereo partly drawn) [Isomogroside V]", "taste attributes when blended with siamenoside I vs siamenoside I only sweetened beverages": "less objectionable taste attributes"},
      {"molecule": "C[C@H](CC[C@@H](O[C@@H]1O[C@H](CO)[C@@H](O)[C@H](O)[C@H]1O)C(C)(C)O)[C@H]1CC[C@@]2(C)C3CC=C4[C@@H](CC[C@H](O[C@@H]5O[C@H](CO)[C@@H](O)[C@H](O)[C@H]5O)C4(C)C)[C@]3(C)[C@H](O)C[C@]12C", "note": "(stereo partly drawn) [Mogroside IIE]", "taste attributes when blended with siamenoside I vs siamenoside I only sweetened beverages": "less objectionable taste attributes"},
      {"molecule": "C[C@H](CC[C@@H](O[C@@H]1O[C@H](CO[C@@H]2O[C@H](CO)[C@@H](O)[C@H](O)[C@H]2O)[C@@H](O)[C@H](O)[C@H]1O)C(C)(C)O)[C@H]1CC[C@@]2(C)C3CC=C4[C@@H](CC[C@H](O[C@@H]5O[C@H](CO)[C@@H](O)[C@H](O)[C@H]5O)C4(C)C)[C@]3(C)[C@H](O)C[C@]12C", "note": "(stereo partly drawn) [Mogroside III]", "taste attributes when blended with siamenoside I vs siamenoside I only sweetened beverages": "less objectionable taste attributes"}
    ]},
    {"assay": "Taste of blends with siamenoside I, findings summarised in the description", "conditions": "in certain blends", "values": [
      {"molecule": "C[C@H](CC[C@@H](O[C@@H]1O[C@H](CO[C@@H]2O[C@H](CO)[C@@H](O)[C@H](O)[C@H]2O)[C@@H](O)[C@H](O)[C@H]1O)C(C)(C)O)[C@H]1CC[C@@]2(C)C3CC=C4[C@@H](CC[C@H](O)C4(C)C)[C@]3(C)C(=O)C[C@]12C", "note": "(stereo partly drawn) [11-Oxomogroside IIA1]", "perception of bitterness in blends": "increase the perception of bitterness"},
      {"molecule": "C[C@H](CC[C@@H](O)C(C)(C)O)[C@H]1CC[C@@]2(C)[C@@H]3CC=C4[C@@H](CC[C@H](O[C@@H]5O[C@H](CO[C@@H]6O[C@H](CO)[C@@H](O)[C@H](O)[C@H]6O)[C@@H](O)[C@H](O)[C@H]5O)C4(C)C)[C@]3(C)C(=O)C[C@]12C", "note": "[11-Oxomogroside IIA2]", "perception of bitterness in blends": "increase the perception of bitterness"},
      {"molecule": "C[C@H](CC[C@@H](O[C@@H]1O[C@H](CO)[C@@H](O)[C@H](O)[C@H]1O[C@@H]1O[C@H](CO)[C@@H](O)[C@H](O)[C@H]1O)C(C)(C)O)[C@H]1CC[C@@]2(C)[C@@H]3CC=C4[C@@H](CC[C@H](O)C4(C)C)[C@]3(C)C(=O)C[C@]12C", "note": "[11-Oxomogroside IIA]", "perception of bitterness in blends": "increase the perception of bitterness"},
      {"molecule": "C[C@H](CC[C@@H](O[C@@H]1O[C@H](CO)[C@@H](O)[C@H](O)[C@H]1O)C(C)(C)O)[C@H]1CC[C@@]2(C)C3CC=C4[C@@H](CC[C@H](O[C@@H]5O[C@H](CO)[C@@H](O)[C@H](O)[C@H]5O)C4(C)C)[C@]3(C)C(=O)C[C@]12C", "note": "(stereo partly drawn) [11-Oxomogroside IIE]", "perception of bitterness in blends": "increase the perception of bitterness"},
      {"molecule": "C[C@H](CC[C@@H](O[C@@H]1O[C@H](CO[C@@H]2O[C@H](CO)[C@@H](O)[C@H](O)[C@H]2O)[C@@H](O)[C@H](O)[C@H]1O)C(C)(C)O)[C@H]1CC[C@@]2(C)C3CC=C4[C@@H](CC[C@H](O[C@@H]5O[C@H](CO)[C@@H](O)[C@H](O)[C@H]5O)C4(C)C)[C@]3(C)C(=O)C[C@]12C", "note": "(stereo partly drawn) [11-Oxomogroside III]", "perception of bitterness in blends": "increase the perception of bitterness"},
      {"molecule": "C[C@H](CC[C@@H](O[C@@H]1O[C@H](CO)[C@@H](O)[C@H](O)[C@H]1O)C(C)(C)O)[C@H]1CC[C@@]2(C)C3CC=C4[C@@H](CC[C@H](O)C4(C)C)[C@]3(C)[C@H](O)C[C@]12C", "note": "(stereo partly drawn) [Mogroside IA]", "perception of bitterness in blends": "increase the perception of bitterness"},
      {"molecule": "C[C@H](CC[C@@H](O)C(C)(C)O)[C@H]1CC[C@@]2(C)C3CC=C4[C@@H](CC[C@H](O[C@@H]5O[C@H](CO)[C@@H](O)[C@H](O)[C@H]5O)C4(C)C)[C@]3(C)[C@H](O)C[C@]12C", "note": "(stereo partly drawn) [Mogroside IE]", "perception of bitterness in blends": "increase the perception of bitterness"},
      {"molecule": "C[C@H](CC[C@@H](O[C@@H]1O[C@H](CO[C@@H]2O[C@H](CO)[C@@H](O)[C@H](O)[C@H]2O)[C@@H](O)[C@H](O)[C@H]1O)C(C)(C)O)[C@H]1CC[C@@]2(C)C3CC=C4[C@@H](CC[C@H](O)C4(C)C)[C@]3(C)[C@H](O)C[C@]12C", "note": "(stereo partly drawn) [Mogroside IIA1]", "perception of bitterness in blends": "increase the perception of bitterness"},
      {"molecule": "C[C@H](CC[C@@H](O)C(C)(C)O)[C@H]1CC[C@@]2(C)[C@@H]3CC=C4[C@@H](CC[C@H](O[C@@H]5O[C@H](CO[C@@H]6O[C@H](CO)[C@@H](O)[C@H](O)[C@H]6O)[C@@H](O)[C@H](O)[C@H]5O)C4(C)C)[C@]3(C)[C@H](O)C[C@]12C", "note": "[Mogroside IIA2]", "perception of bitterness in blends": "increase the perception of bitterness"},
      {"molecule": "C[C@H](CC[C@@H](O[C@@H]1O[C@H](CO)[C@@H](O)[C@H](O)[C@H]1O[C@@H]1O[C@H](CO)[C@@H](O)[C@H](O)[C@H]1O)C(C)(C)O)[C@H]1CC[C@@]2(C)[C@@H]3CC=C4[C@@H](CC[C@H](O)C4(C)C)[C@]3(C)[C@H](O)C[C@]12C", "note": "[Mogroside IIA]", "perception of bitterness in blends": "increase the perception of bitterness"},
      {"molecule": "C[C@H](CC[C@@H](O[C@@H]1O[C@H](CO)[C@@H](O)[C@H](O)[C@H]1O)C(C)(C)O)[C@H]1CC[C@@]2(C)C3CC=C4[C@@H](CC[C@H](O[C@@H]5O[C@H](CO[C@@H]6O[C@H](CO)[C@@H](O)[C@H](O)[C@H]6O)[C@@H](O)[C@H](O)[C@H]5O)C4(C)C)[C@]3(C)[C@H](O)C[C@]12C", "note": "(stereo partly drawn) [Mogroside IIIA2]", "perception of bitterness in blends": "increase the perception of bitterness"},
      {"molecule": "C[C@H](CC[C@@H](O[C@@H]1O[C@H](CO[C@@H]2O[C@H](CO)[C@@H](O)[C@H](O)[C@H]2O)[C@@H](O)[C@H](O)[C@H]1O)C(C)(C)O)[C@H]1CC[C@@]2(C)C3CC=C4[C@@H](CC[C@H](O[C@@H]5O[C@H](CO[C@@H]6O[C@H](CO)[C@@H](O)[C@H](O)[C@H]6O)[C@@H](O)[C@H](O)[C@H]5O)C4(C)C)[C@]3(C)[C@H](O)C[C@]12C", "note": "(stereo partly drawn) [Mogroside IVA]", "perception of bitterness in blends": "increase the perception of bitterness"}
    ]},
    {"assay": "Taste of blends with siamenoside I, findings summarised in the description", "conditions": "when present in certain amounts in blends with siamenoside I", "values": [
      {"molecule": "11-oxomogroside I", "impact on bitterness in blends with siamenoside I": "do not impact bitterness"},
      {"molecule": "C[C@H](CC[C@@H](O[C@@H]1O[C@H](CO)[C@@H](O)[C@H](O)[C@H]1O[C@@H]1O[C@H](CO)[C@@H](O)[C@H](O)[C@H]1O)C(C)(C)O)[C@H]1CC[C@@]2(C)C3CC=C4[C@@H](CC[C@H](O[C@@H]5O[C@H](CO)[C@@H](O)[C@H](O)[C@H]5O)C4(C)C)[C@]3(C)[C@H](O)C[C@]12C", "note": "(stereo partly drawn) [Mogroside IIIE]", "impact on bitterness in blends with siamenoside I": "do not impact bitterness"},
      {"molecule": "C[C@H](CC[C@@H](O[C@@H]1O[C@H](CO[C@@H]2O[C@H](CO)[C@@H](O)[C@H](O)[C@H]2O)[C@@H](O)[C@H](O)[C@H]1O[C@@H]1O[C@H](CO)[C@@H](O)[C@H](O)[C@H]1O)C(C)(C)O)[C@H]1CC[C@@]2(C)[C@@H]3CC=C4[C@@H](CC[C@H](O[C@@H]5O[C@H](CO[C@@H]6O[C@H](CO)[C@@H](O)[C@H](O)[C@H]6O)[C@@H](O)[C@H](O)[C@H]5O)C4(C)C)[C@]3(C)[C@H](O)C[C@]12C", "note": "[Mogroside V]", "impact on bitterness in blends with siamenoside I": "do not impact bitterness"}
    ]}
  ]
}
